Assay results taken from publication PMC11530130, “Peripherally restricted PICK1 inhibitor mPD5 ameliorates pain behaviors in murine inflammatory and neuropathic pain models” (JCI Insight, 2024).
Where “and” joins values, the source holds several entries; their conditions need not be identical. Equal entries are not always repeated.

Columns and labels:
[1] = Plasma exposure after repeated s.c. administration (10 + 2 + 2 + 2 + 2 μmol/kg), LC-MS/MS; assay type: in vivo, mouse; details: for Plasma exposure, Fig 7B, individual mice: 10µmol/kg repeated
Description: Assessment of plasma levels and biodistribution of mPD5.
The mPD5 plasma exposure was determined by (WuXI AppTec (Shanghai, China)) and done following s.c. injection of three male C57BL/6N (vendor: VTLH) mice (7-9 weeks old, fasted) with each concentration of mPD5 (2, 10 and 50 µmol/kg) in sterile PBS. Blood samples were taken 30 min, 1 hour, 2 hours, 5 hours, and 12 hours following injection. For the repeated administration experiment, the initial s.c. injection of 10 µmol/kg was followed by 4 s.c. administrations of 2 µmol/kg with one hour between injections. Following the last injection, blood samples (0.03 mL from saphenous vein or other suitable site) were collected in EDTA- […]
K2 tubes at 5 min, 30 min, 1 hour, 5 hours, 12 hours, 24 hours, and 48 hours and centrifuged (app 4 ℃, 3200 g, 10 min) for collection of plasma. Plasma was transferred to 96 well plates and quick-frozen over dry ice and kept at -60 ℃ until LC-MS/MS analysis. For LC-MS/MS analysis plasma with 0.25% Triton X100 in 50% MeOH/water (6 µL) was quenched with 160 µL of IS1 (internal standard in MeOH (Labetalol & tolbutamide & Verapamil & dexamethasone & glyburide & Celecoxib 100 ng/mL for each)) and the mixture was vortexed for 10 min at 800 rpm and centrifuged for 15 min at 3220 × g at 4 ℃. An aliquot of 65 µL supernatant was transferred to a clean 96-well plate and centrifuged for 5 min at 3220 × g at 4 ℃, then the supernatant was directly injected for LC-MS/MS analysis. Plasma half-lives were determined from three points in the elimination phase. […]

[2] = test system: mice, spared nerve injury (SNI) model; test: Single exposure place preference (sePP), SNI mice; assay type: in vivo, mouse; design: time spent in the paired compartment, individual mice: reference not given here
Description: Single exposure place preference.
Initial perception of the drugs was measured by single exposure place preference experiments performed in an elongated three compartment apparatus (67.5 cm x 24 cm) with a biased design of different floor textures and wall patterns and a neutral zone in the middle. We have […]
compartment and that a single exposure of psychostimulants in the grey compartment sufficiently changes the preference towards that compartment (9-11). For further details of the setup, we refer to (10). Experiments lasted three days with exposure sessions on days one and two and a preference test on day three. […]
Mice were left in Med-Associates square behavioral chambers (27 cm x 27 cm) to freely roam around for 60 min, four days in a row. […] On day three, both control and SNI mice were placed directly in the chambers and recorded for 60 min. On day four, control mice were injected s.c. with PBS, and SNI mice were injected with either 10 μmol/kg mPD5 or PBS immediately before being placed in the chambers and recorded for 60 min. The recordings were analyzed using the Avisoft SASLab Pro software (Version 5.02.07, Avisoft Bioacoustics) as described in (12), applying a fast fourier transformation (FFT) (1024 FTT length, 100% frame size, Blackman window, and 87.5% time window overlap). […]

## CCCCCCCCCCCCCC(=O)N(CCOCCOCCC(=O)N[C@@H](Cc1c[nH]cn1)C(=O)N[C@@H](Cc1c[nH]c2ccccc12)C(=O)N[C@@H](CC(C)C)C(=O)N[C@@H](CCCCN)C(=O)N[C@H](C(=O)O)C(C)C)CCOCCOCCC(=O)N[C@@H](Cc1c[nH]cn1)C(=O)N[C@@H](Cc1c[nH]c2ccccc12)C(=O)N[C@@H](CC(C)C)C(=O)N[C@@H](CCCCN)C(=O)N[C@H](C(=O)O)C(C)C [mPD5, myristoyl-NPEG4-(HWLKV)2]
[1]; time 0.5
  Plasma exposure, Fig 7B, individual mice: 3149 and 2827 and 2358
[1]; time 1
  Plasma exposure, Fig 7B, individual mice: 3071 and 3116 and 2251
[1]; time 5
  Plasma exposure, Fig 7B, individual mice: 8.66 and 8.95 and 4.61
[1]; C57BL/6N, mouse, plasma, sc, s.c. 10 μmol/kg followed by 4 x 2 μmol/kg in 1-hour intervals
  half-life: 31.2 ± 1.2 min
[2]; SNI mice conditioned with 30 μmol/kg
  time spent in the paired compartment, individual mice: 0.9648 and 1.369 and 0.722 and 0.8519 and 0.9815 and 0.6715 and 0.5887 and 0.7233 and 1.085 and 1.235 and 0.7664
[2]; SNI, male mice, s.c. 30 μmol/kg
  time spent in the paired chamber compared to PBS (sePP): did not change the time spent in the paired chamber
